pIC50: −log10 of the molar value. Where two headings read alike, the source gives them in different places.
Legend:
Type in all cases: biochemical
[1] = target: T1, recombinant mouse FAPα (rmFAPα) (Mus musculus, UniProt P97321); test: FAPα enzymatic exopeptidase (dipeptidase) activity assay; conditions: 1 μM test compound; Z-Gly-Pro-AMC substrate; read-out: rmFAPα (% exo inh @ 1 μM)
T1 construct: purchased R&S system (so in the source)
T1 sequence (P97321 1-761): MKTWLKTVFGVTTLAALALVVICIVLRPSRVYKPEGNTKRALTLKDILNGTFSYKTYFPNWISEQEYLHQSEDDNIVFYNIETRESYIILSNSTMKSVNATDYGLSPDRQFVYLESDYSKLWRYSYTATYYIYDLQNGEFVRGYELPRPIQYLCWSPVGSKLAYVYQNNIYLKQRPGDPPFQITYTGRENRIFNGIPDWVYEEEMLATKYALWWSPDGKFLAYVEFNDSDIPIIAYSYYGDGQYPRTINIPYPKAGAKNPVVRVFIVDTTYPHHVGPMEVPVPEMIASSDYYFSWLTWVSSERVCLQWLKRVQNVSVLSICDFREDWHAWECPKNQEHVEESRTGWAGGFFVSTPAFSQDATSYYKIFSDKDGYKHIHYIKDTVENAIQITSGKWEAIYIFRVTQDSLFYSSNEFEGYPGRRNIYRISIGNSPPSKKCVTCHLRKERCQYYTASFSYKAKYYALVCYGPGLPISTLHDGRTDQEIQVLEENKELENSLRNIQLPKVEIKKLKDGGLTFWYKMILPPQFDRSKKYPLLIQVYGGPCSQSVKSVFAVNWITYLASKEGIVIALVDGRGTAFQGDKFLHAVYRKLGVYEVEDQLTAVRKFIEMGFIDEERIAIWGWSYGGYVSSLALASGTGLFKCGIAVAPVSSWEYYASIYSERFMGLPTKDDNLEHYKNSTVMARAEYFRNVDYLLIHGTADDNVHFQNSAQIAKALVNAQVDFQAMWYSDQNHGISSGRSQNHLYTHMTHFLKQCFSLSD
Description: FAPα enzymatic exopeptidase (dipeptidase) activity assay. […] 7-Amino-4-Methylcoumarin (AMC) release was detected by measuring fluorescence at Ex/Em 380/460 nm using a Multifunction Microplate Reader (Synergy 4, Biotek). All measurements were carried out in duplicate. […] For the calculations, the average measurements from reactions containing only vehicle and substrate, without enzyme, were used as a blank and were subtracted from the rest of the measurements. Percent inhibition was calculated using the average measurements from reactions containing vehicle, enzyme, and substrate as the maximum of enzymatic activity. Measurements were performed as a single point.

[2] = target: T2, recombinant human FAPα (rhFAPα) (Homo sapiens, UniProt Q12884); test: as above; conditions: for inhibition at 1 µM: 1 μM test compound, Z-Gly-Pro-AMC substrate, read-out: rhFAPα (% exo inh @ 1 μM); for pIC50: exopeptidase, read-out: rhFAPα (exo IC50)
T2 construct: purchased R&S system (so in the source)
T2 sequence (Q12884 1-760): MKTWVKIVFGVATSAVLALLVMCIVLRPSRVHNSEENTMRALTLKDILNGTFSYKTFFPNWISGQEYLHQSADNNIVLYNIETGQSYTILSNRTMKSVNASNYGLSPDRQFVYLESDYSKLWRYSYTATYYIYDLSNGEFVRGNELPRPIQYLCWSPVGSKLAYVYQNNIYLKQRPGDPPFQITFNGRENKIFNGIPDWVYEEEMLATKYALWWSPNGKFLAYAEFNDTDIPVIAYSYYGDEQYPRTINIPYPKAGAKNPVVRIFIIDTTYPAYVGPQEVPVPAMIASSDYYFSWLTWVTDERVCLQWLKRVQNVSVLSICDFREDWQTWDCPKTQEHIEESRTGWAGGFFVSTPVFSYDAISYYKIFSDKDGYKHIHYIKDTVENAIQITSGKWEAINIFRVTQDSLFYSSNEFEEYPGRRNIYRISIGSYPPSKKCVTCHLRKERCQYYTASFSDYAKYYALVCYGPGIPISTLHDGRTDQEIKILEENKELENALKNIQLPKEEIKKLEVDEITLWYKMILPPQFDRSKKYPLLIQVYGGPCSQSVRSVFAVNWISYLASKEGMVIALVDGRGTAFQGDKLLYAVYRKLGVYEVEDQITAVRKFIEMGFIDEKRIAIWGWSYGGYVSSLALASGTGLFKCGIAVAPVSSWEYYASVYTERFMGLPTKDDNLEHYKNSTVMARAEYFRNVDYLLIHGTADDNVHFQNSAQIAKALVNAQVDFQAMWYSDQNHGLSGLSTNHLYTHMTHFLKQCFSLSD

[3] = target: T3, recombinant human DPPIV (rhDPPIV) (Homo sapiens, UniProt P27487); test: DPPIV enzymatic activity assay; conditions: H-Gly-Pro-pNA substrate
T3 construct: purchased R&S system (so in the source)
T3 sequence (P27487 whole entry): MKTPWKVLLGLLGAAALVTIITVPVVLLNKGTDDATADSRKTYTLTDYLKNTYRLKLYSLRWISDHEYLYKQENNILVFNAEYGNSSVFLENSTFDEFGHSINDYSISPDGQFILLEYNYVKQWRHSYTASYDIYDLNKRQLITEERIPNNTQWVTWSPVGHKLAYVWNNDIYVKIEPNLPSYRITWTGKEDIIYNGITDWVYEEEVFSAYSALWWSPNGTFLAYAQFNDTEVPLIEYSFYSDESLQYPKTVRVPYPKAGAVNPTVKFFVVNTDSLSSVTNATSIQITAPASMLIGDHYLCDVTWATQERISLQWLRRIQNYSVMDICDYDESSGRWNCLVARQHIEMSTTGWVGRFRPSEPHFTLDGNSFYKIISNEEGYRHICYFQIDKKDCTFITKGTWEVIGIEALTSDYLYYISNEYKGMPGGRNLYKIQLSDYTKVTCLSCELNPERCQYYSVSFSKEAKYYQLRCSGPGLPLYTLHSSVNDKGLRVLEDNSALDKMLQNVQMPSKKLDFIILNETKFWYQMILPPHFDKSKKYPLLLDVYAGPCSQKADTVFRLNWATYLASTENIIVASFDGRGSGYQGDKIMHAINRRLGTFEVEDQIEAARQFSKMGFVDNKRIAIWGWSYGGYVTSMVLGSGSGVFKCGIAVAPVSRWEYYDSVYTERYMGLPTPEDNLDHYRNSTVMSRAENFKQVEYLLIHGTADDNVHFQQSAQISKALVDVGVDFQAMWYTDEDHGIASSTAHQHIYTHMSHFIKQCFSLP

[4] = target: T4, recombinant human PREP (rhPREP) (Homo sapiens, UniProt P48147); test: PREP enzymatic activity assay; conditions: Z-Gly-Pro-AMC substrate
T4 sequence (P48147 1-710): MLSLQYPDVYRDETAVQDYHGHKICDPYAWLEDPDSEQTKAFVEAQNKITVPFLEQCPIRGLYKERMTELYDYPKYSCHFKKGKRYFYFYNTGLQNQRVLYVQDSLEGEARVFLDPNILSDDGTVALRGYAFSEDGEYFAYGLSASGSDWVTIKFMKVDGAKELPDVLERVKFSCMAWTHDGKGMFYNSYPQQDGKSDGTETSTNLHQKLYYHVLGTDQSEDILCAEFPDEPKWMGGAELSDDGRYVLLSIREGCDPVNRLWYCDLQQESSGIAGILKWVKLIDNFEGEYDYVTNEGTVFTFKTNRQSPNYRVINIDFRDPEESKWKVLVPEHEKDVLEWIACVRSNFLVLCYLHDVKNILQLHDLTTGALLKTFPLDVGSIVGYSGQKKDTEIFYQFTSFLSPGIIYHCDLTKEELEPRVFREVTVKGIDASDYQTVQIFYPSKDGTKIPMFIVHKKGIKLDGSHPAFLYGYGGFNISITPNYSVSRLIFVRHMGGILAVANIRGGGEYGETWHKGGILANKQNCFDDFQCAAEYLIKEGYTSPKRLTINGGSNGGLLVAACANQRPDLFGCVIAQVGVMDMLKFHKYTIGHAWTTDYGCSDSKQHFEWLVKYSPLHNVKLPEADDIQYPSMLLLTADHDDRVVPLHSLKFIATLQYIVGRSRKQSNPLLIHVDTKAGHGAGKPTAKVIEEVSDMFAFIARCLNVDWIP
Description: (§1) 7-Amino-4-Methylcoumarin (AMC) release was detected by measuring fluorescence at Ex/Em 380/460 nm using a Multifunction Microplate Reader (Synergy 4, Biotek). All measurements were carried out in triplicate.

[5] = target: T5, recombinant human DPP9 (rhDPP9) (Homo sapiens, UniProt Q86TI2); test: DPP9 enzymatic activity assay; conditions: H-Gly-Pro-AMC substrate
T5 construct: purchased R&S system (so in the source)
T5 sequence (Q86TI2 whole entry): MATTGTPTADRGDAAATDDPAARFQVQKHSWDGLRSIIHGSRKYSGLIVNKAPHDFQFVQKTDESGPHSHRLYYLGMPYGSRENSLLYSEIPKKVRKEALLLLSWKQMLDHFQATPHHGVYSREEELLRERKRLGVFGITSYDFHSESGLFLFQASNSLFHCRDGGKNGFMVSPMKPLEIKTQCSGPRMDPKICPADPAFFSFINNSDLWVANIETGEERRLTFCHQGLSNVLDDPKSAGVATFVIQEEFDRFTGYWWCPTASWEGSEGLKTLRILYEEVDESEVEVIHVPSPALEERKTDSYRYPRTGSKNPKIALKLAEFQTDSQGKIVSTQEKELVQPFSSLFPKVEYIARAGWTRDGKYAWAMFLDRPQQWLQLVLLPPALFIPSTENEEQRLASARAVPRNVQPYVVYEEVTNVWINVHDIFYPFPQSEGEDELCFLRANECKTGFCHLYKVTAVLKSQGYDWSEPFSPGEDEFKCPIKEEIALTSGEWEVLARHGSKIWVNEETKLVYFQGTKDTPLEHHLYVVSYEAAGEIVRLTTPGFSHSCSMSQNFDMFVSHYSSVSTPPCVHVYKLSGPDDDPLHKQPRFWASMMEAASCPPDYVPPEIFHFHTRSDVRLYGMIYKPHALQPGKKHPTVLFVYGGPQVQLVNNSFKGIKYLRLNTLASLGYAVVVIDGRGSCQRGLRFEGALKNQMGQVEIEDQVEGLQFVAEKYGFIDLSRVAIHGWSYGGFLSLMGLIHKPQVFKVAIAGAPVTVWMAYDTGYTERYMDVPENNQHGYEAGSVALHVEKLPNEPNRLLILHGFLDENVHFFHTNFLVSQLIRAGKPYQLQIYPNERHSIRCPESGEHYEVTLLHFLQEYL
Description: as §1

mouse plasma DPPIV = target: T6, mouse plasma DPPIV (Mus musculus, UniProt P28843); test: DPPIV enzymatic activity in mouse plasma; conditions: C57BL/6 mouse plasma; H-Gly-Pro-AMC substrate
T6 construct: from tissue; host or cells: mouse plasma (C57BL/6, EDTA)
T6 sequence (P28843 37-760 limits assumed): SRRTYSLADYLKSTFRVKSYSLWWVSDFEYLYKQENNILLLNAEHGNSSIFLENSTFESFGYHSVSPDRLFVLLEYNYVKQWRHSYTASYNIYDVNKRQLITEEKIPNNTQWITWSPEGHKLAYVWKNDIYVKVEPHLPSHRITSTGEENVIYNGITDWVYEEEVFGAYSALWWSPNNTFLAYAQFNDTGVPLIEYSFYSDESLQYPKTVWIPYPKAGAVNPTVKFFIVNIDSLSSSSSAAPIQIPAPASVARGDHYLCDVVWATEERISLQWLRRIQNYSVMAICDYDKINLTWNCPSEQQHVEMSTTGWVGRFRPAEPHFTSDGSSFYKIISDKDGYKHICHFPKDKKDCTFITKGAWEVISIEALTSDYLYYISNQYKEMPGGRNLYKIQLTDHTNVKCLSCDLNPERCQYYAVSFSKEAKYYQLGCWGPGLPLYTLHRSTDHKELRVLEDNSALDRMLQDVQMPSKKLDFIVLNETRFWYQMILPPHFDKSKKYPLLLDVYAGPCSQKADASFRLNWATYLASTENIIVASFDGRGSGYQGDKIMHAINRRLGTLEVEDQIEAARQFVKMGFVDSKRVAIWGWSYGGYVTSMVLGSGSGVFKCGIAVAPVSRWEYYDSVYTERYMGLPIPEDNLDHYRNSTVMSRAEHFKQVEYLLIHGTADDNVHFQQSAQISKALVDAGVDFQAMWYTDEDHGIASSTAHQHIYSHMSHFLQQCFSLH
Description: Approximately 500 μL of whole blood from one C57BL/6 mouse was harvested into BD Microtainer® tubes (K2) EDTA (#365974, Becton Dickinson and Co.) via terminal cardiac puncture. The blood sample was immediately centrifuged at approximately 9000 g at 4° C. for 5 minutes. Plasma was separated and stored at −80° C. in aliquots of 300 μL. To assay baseline DPPIV enzymatic exopeptidase activity, 5 μL of thawed, mouse plasma was diluted (1:5) in buffer (100 mM Tris-HCl, 400 mM NaCl, 50 mM salicylic acid, 1 mM EDTA, pH 7.5) and mixed with 35 µL of the same buffer before being pre-incubated with different concentrations of 10 μL of test compounds or DMSO vehicle for 15 minutes at 37° C. in 96-well black plates (Nunc, #237108). After pre-incubation, 50 μL of 200 μM dipeptide substrate H-Gly-Pro-AMC (Bachem, #L-1225) was added to the mixture. The assay was performed for 1 hour at 37° C. 7-Amino-4-Methylcoumarin (AMC) release was detected measuring fluorescence at an excitation wavelength of 360 nm and an emission wavelength of 460 nm using a Multifunction Microplate Reader (Synergy 4, Biotek). All measurements were carried out at least in duplicate.

mouse plasma FAPα = target: T7, mouse plasma FAPα (Mus musculus, UniProt P97321); test: FAPα enzymatic activity in mouse plasma; conditions: C57BL/6 mouse plasma; PRXS-AMC substrate; read-out: mouse plasma FAPα (PRXS-AMC) (exo IC50)
T7 construct: from tissue; host or cells: mouse plasma (C57BL/6, EDTA)
T7 sequence (P97321 24-761 limits assumed): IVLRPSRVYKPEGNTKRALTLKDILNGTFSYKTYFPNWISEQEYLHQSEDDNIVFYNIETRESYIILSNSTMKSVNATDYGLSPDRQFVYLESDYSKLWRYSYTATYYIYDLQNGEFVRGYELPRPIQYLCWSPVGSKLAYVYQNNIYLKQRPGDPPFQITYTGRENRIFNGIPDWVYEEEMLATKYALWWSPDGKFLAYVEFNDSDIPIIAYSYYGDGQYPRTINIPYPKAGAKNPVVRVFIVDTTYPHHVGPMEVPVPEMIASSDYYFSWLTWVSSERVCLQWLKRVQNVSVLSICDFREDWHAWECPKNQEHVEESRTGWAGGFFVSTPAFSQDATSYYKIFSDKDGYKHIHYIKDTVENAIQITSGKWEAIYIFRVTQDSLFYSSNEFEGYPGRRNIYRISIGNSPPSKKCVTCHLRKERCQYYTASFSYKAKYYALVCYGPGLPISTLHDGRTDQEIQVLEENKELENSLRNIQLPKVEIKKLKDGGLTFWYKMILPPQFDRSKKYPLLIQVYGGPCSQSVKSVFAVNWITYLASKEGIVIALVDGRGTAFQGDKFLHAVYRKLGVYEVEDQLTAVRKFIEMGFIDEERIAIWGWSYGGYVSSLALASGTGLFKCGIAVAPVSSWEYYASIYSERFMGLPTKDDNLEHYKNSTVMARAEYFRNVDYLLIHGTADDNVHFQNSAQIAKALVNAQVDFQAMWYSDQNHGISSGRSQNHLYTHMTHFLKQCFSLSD
Description: The blood sample was immediately centrifuged at approximately 9000 g at 4° C. for 5 minutes. Plasma was separated and stored at −80° C. in aliquots of 300 μL. […] The assay was performed for 1 hour at 37° C. protected from light. 7-Amino-4-Methylcoumarin (AMC) release was detected measuring fluorescence at an excitation wavelength of 380 nm and an emission wavelength of 460 nm using a Multifunction Microplate Reader (Synergy 4, Biotek). All measurements were carried out at least as a single point.

Row | SMILES | inhibition at 1 µM [1] [%] | inhibition at 1 µM [2] [%] | pIC50 ([2]; Table 2, Z-Gly-Pro-AMC) | pIC50 ([2]; Table 3) | pIC50 [3] | pIC50 [4] | pIC50 [5] | pIC50 (mouse plasma DPPIV) | pIC50 (mouse plasma FAPα)
1 | N#C[C@@H]1CC(F)(F)CN1C(=O)CNC(=O)C1Cc2ccccc2C1 [Example 7, (S)—N-(2-(2-cyano-4,4-difluoropyrrolidin-1-yl)-2-oxoethyl)-2,3-dihydro-1H-indene-2-carboxamide] | < 25 |  |  |  |  |  |  |  | 
2 | N#C[C@@H]1CC(F)(F)CN1C(=O)CNC(=O)c1ccc(C(N)=O)cc1 [Compound 11, (S)—N-(2-(2-cyano-4,4-difluoropyrrolidin-1-yl)-2-oxoethyl)terephthalamide] | 25 to 50 |  |  |  |  |  |  |  | 
3 | N#Cc1ccc(C(=O)NCC(=O)N2CC(F)(F)C[C@H]2C#N)cc1C(F)(F)F [Compound 12, (S)-4-cyano-N-(2-(2-cyano-4,4-difluoropyrrolidin-1-yl)-2-oxoethyl)-3-(trifluoromethyl)benzamide] | 25 to 50 |  |  |  |  |  |  |  | 
4 | N#C[C@@H]1CC(F)(F)CN1C(=O)CNC(=O)c1cn(-c2ccccc2)c(=O)c2ccccc12 [Example 2, (S)—N-(2-(2-cyano-4,4-difluoropyrrolidin-1-yl)-2-oxoethyl)-1-oxo-2-phenyl-1,2-dihydroisoquinoline-4-carboxamide] | 25 to 50 |  |  |  |  |  |  |  | 
5 | N#C[C@@H]1CC(F)(F)CN1C(=O)CNC(=O)N1Cc2ccccc2C1 [Example 8, (S)—N-(2-(2-cyano-4,4-difluoropyrrolidin-1-yl)-2-oxoethyl) isoindoline-2-carboxamide] | < 25 |  |  |  |  |  |  |  | 

More lines, now with the values ahead:

Row | inhibition at 1 µM [1] [%] | inhibition at 1 µM [2] [%] | pIC50 ([2]; Table 2, Z-Gly-Pro-AMC) | pIC50 ([2]; Table 3) | pIC50 [3] | pIC50 [4] | pIC50 [5] | pIC50 (mouse plasma DPPIV) | pIC50 (mouse plasma FAPα) | SMILES
6 |  | > 50 | > 6.00 | > 6.00 | < 5.00 | 5.00 to 6.00 | 5.00 to 6.00 | < 5.00 |  | CC(c1ccccc1)c1cnccc1C(=O)NCC(=O)N1CC(F)(F)C[C@H]1C#N (stereo partly drawn) [Compound 123, N-(2-((S)-2-cyano-4,4-difluoropyrrolidin-1-yl)-2-oxoethyl)-3-(1-phenylethyl)isonicotinamide]
7 |  | > 50 | > 6.00 | > 6.00 | < 5.00 | 5.00 to 6.00 | 5.00 to 6.00 | < 5.00 | > 6.00 | N#C[C@@H]1CC(F)(F)CN1C(=O)CNC(=O)c1c[nH]c(=O)cc1Cc1ccccc1 [Compound 121, (S)-4-benzyl-N-(2-(2-cyano-4,4-difluoropyrrolidin-1-yl)-2-oxoethyl)-6-oxo-1,6-dihydropyridine-3-carboxamide]
8 |  | > 50 | > 6.00 | > 6.00 | 5.00 to 6.00 | < 5.00 | < 5.00 | 5.00 to 6.00 | > 6.00 | N#C[C@@H]1CC(F)(F)CN1C(=O)CNC(=O)c1ccncc1-c1ccc(Cl)c(F)c1 [Compound 111, (S)-3-(4-chloro-3-fluorophenyl)-N-(2-(2-cyano-4,4-difluoropyrrolidin-1-yl)-2-oxoethyl)isonicotinamide]

From US11780821B2, “Inhibitors of fibroblast activation protein” (Praxis Biotech LLC, priority 2017, dated 2023)
